In patent publication US20110077294A1, “R-(-) / S-(+)-7-[3-N SUBSTITUTED AMINO-2 HYDROXYPROPOXY] FLAVONES” (priority 2006, published 2011):
Marks after values point to notes of the source that are not given here.

What was measured:
Assay type in all cases: in vivo
[1] = tested on: C57BL/KsBom-db/db mice; assay: Serum lipid profile of treated db/db mice (antidyslipidemic activity); settings: 25 mg/kg
Protocol: (§1) C57BL/KsBom-db/db mice (12-18 weeks old), weighing around 35+g bred in the animal house of CDRI, Lucknow, were used in the present experiments. The mice were housed in groups of 3 to 5 (same sex) in a room controlled for temperature (23±2.0 ° C.) and 12/12 hours light/dark cycle (lights on at 6.00 am). Body weight of each animal was measured daily from day 1 to day 10 of the experiment. All animals had free access to fresh water and normal pellet diet except on the day of the postprandial protocol (day 6) and during the overnight fast before the OGTT on day 10. The animals always had access to water during experimental periods. Blood glucose was checked every morning up till day 10. On day 10 an oral glucose tolerance test (OGTT) was performed after an overnight fasting. Blood glucose was measured at −30.0 min and test compounds were administered. The blood glucose was again measured at 0 min just post treatment and at this juncture glucose solution was given at a dose of 3 gm/kg to all the groups including the vehicle treated group. The blood glucose levels were checked at 30 min, 60 min, 90 min and 120 min post glucose administration. The data was analyzed for its significance on Prism software.

[2] = tested on: C57BL/KsBom-db/db mice; assay: Oral glucose tolerance test (OGTT) on day 10 in db/db mice; settings: for Blood glucose profile, 0 min post glucose load / Blood glucose % change compared to control, 0 min post glucose load: OGTT day 10, 0 min; for Blood glucose profile, 30 min post glucose load / Blood glucose % change compared to control, 30 min post glucose load: OGTT day 10, 30 min; for Blood glucose profile, 60 min post glucose load / Blood glucose % change compared to control, 60 min post glucose load: OGTT day 10, 60 min; for Blood glucose profile, 90 min post glucose load / Blood glucose % change compared to control, 90 min post glucose load: OGTT day 10, 90 min; for Blood glucose profile, 120 min post glucose load / Blood glucose % change compared to control, 120 min post glucose load: OGTT day 10, 120 min; for Blood glucose profile, −30 min post glucose load / Blood glucose % change compared to control, −30 min post glucose load: OGTT day 10, −30 min; for Comparative antihyperglycemic activity: Day 10 (OGTT): in % (unit assumed)
Protocol: as §1

[3] = tested on: C57BL/KsBom-db/db mice; assay: Blood glucose profile of db/db mice during daily treatment (antihyperglycemic activity); settings: 10 mg/kg
Protocol: as §1

**Q.** Which results are given for `CC(C)(C)NC[C@H](O)COc1ccc2c(=O)cc(-c3cc(OCc4ccccc4)cc(OCc4ccccc4)c3)oc2c1` [S-002-853 (S), (S)-(+)-7-(3-tert-Butylamino-2-hydroxypropoxy)-3′,5′-dibenzyloxyflavone]?
**A.** Serum lipid profile: Cholesterol [1]: 185 ± 51.4 mg/dL; Serum lipid profile: HDL-Chol [1]: 49.5 ± 8.36 mg/dL; Serum lipid profile: Triglycerides [1]: 115 ± 2.82 mg/dL; Cholesterol % change compared to control ([1]; vs sham): −21.8%; HDL-Chol % change compared to control ([1]; vs sham): +33.2%; Triglycerides % change compared to control ([1]; vs sham): −14.5%; Blood glucose profile, 0 min post glucose load ([2]; 10 mg/kg): 9.23 ± 3.10 mM; Blood glucose % change compared to control, 0 min post glucose load ([2]; 10 mg/kg, vs sham): −25.7%; Blood glucose profile, 30 min post glucose load ([2]; 10 mg/kg): 19.3 ± 5.52 mM; Blood glucose % change compared to control, 30 min post glucose load ([2]; 10 mg/kg, vs sham): −32.8%; Blood glucose profile, 60 min post glucose load ([2]; 10 mg/kg): 18.4 ± 5.39 mM; Blood glucose % change compared to control, 60 min post glucose load ([2]; 10 mg/kg, vs sham): −27.2%; Blood glucose profile, 90 min post glucose load ([2]; 10 mg/kg): 12.1 ± 3.81 mM; Blood glucose % change compared to control, 90 min post glucose load ([2]; 10 mg/kg, vs sham): −26.9%; Blood glucose profile, 120 min post glucose load ([2]; 10 mg/kg): 9.23 ± 3.10 mM; Blood glucose % change compared to control, 120 min post glucose load ([2]; 10 mg/kg, vs sham): −11.7%; Blood glucose profile, −30 min post glucose load ([2]; 10 mg/kg): 8.37 ± 2.98 mM; Blood glucose % change compared to control, −30 min post glucose load ([2]; 10 mg/kg, vs sham): −23.9%; effect of 10 days treatment on glucose tolerance ([2]; 10 mg/kg, not statistically significant): around 27.6%; Blood glucose profile, 0 min post glucose load ([2]; 25 mg/kg): 4.81 ± 0.35 mM; Blood glucose % change compared to control, 0 min post glucose load ([2]; 25 mg/kg, vs sham): −41.8%; Blood glucose profile, 30 min post glucose load ([2]; 25 mg/kg): 17.8 ± 1.24 mM; Blood glucose % change compared to control, 30 min post glucose load ([2]; 25 mg/kg, vs sham): −38.6%; Blood glucose profile, 60 min post glucose load ([2]; 25 mg/kg): 16.3 ± 1.82 mM; Blood glucose % change compared to control, 60 min post glucose load ([2]; 25 mg/kg, vs sham): −48.3%; Blood glucose profile, 90 min post glucose load ([2]; 25 mg/kg): 13.0 ± 1.66 mM; Blood glucose % change compared to control, 90 min post glucose load ([2]; 25 mg/kg, vs sham): −45.5%; Blood glucose profile, 120 min post glucose load ([2]; 25 mg/kg): 8.83 ± 0.72 mM; Blood glucose % change compared to control, 120 min post glucose load ([2]; 25 mg/kg, vs sham): −58.2%; Blood glucose profile, −30 min post glucose load ([2]; 25 mg/kg): 4.57 ± 0.30 mM; Blood glucose % change compared to control, −30 min post glucose load ([2]; 25 mg/kg, vs sham): −43.5%; effect of 10 days treatment on glucose tolerance (overall improvement in OGTT) ([2]; 25 mg/kg, vs sham): around 45.3%; Comparative antihyperglycemic activity: Day 10 (OGTT) ([2]; test dose 10 mg/kg): 27.6*; Comparative antihyperglycemic activity: Day 10 (OGTT) ([2]; test dose 25 mg/kg): 45.3**; fall in blood glucose profile (in words) [3]: not statistically significant on any day post treatment; Blood glucose, day 1 post treatment ([3]; day 1): 19.8 ± 2.47 mM; Blood glucose % change compared to control, day 1 ([3]; day 1, vs sham): −0.9%; Blood glucose, day 2 post treatment ([3]; day 2): 18.5 ± 2.34 mM; Blood glucose % change compared to control, day 2 ([3]; day 2, vs sham): −9.60%; Blood glucose, day 3 post treatment ([3]; day 3): 17.9 ± 2.14 mM; Blood glucose % change compared to control, day 3 ([3]; day 3, vs sham): −18.6%; Blood glucose, day 4 post treatment ([3]; day 4): 15.3 ± 2.96 mM; Blood glucose % change compared to control, day 4 ([3]; day 4, vs sham): −26.8%; Blood glucose, day 5 post treatment ([3]; day 5): 13.8 ± 2.98 mM; Blood glucose % change compared to control, day 5 ([3]; day 5, vs sham): −35.0%; Blood glucose, day 6 post treatment ([3]; day 6): 13.1 ± 3.41 mM; Blood glucose % change compared to control, day 6 ([3]; day 6, vs sham): −40.7%; Blood glucose, day 7 post treatment ([3]; day 7): 11.8 ± 3.55 mM
